Measured values from patent US12194198B2, “High strength porous materials for controlled release” (Access Vascular, Inc., priority 2018, dated 2025).

How the values were obtained:
P. aeruginosa = conditions: cited from earlier work
A. baumannii = conditions: cited from earlier work
[1] = Chlorhexidine free base saturation in methanol; assay type: physicochemical; conditions: CHX/methanol solutions
Source text: Solution was made with […] chlorhexidine free base (CHX) in methanol. CHX/methanol solutions appeared to reach saturation around 1000 ppm. Serial dilutions were made from the solution, where the UV-Vis would become overloaded when concentrations were above 200 ppm. In order to avoid overloading the UV-Vis, concentrations below 100 ppm were used to collect absorbance values. FIG. 8 and Table 6 show the absorbance data collected from the chlorhexidine free base standards.

saturation concentration in methanol [1]: around 1000 ppm
Structure (SMILES): [H]/N=C(\N/C(=N/[H])NCCCCCCNC(=N)NC(=N)Nc1ccc(Cl)cc1)Nc1ccc(Cl)cc1 [chlorhexidine]
largest known minimum bactericidal concentration (MBC) (P. aeruginosa): 128 µg/mL | largest known minimum inhibitory concentration (MIC) (A. baumannii): 64 µg/mL
